pIC50: −log10 of the molar value. Like-named read-outs stand apart in the source and are kept apart here. Where only a bound is given, the exact number is not on record here.

Assay type in all cases: biochemical
One assay has as its target T1, HDAC 4 (Homo sapiens, UniProt P56524).
T1 construct: The His-tagged HDAC 4, wild-type catalytic domain, was expressed in E. coli; His tag; made in house; host or cells: E. coli BL21 Star (DE3)
The experiment in a line: HDAC 4 Assay.

The next assay has as its target T2, HDAC 6 (Homo sapiens, UniProt Q9UBN7).
T2 construct: made in house
T2 sequence (Q9UBN7 1-1215): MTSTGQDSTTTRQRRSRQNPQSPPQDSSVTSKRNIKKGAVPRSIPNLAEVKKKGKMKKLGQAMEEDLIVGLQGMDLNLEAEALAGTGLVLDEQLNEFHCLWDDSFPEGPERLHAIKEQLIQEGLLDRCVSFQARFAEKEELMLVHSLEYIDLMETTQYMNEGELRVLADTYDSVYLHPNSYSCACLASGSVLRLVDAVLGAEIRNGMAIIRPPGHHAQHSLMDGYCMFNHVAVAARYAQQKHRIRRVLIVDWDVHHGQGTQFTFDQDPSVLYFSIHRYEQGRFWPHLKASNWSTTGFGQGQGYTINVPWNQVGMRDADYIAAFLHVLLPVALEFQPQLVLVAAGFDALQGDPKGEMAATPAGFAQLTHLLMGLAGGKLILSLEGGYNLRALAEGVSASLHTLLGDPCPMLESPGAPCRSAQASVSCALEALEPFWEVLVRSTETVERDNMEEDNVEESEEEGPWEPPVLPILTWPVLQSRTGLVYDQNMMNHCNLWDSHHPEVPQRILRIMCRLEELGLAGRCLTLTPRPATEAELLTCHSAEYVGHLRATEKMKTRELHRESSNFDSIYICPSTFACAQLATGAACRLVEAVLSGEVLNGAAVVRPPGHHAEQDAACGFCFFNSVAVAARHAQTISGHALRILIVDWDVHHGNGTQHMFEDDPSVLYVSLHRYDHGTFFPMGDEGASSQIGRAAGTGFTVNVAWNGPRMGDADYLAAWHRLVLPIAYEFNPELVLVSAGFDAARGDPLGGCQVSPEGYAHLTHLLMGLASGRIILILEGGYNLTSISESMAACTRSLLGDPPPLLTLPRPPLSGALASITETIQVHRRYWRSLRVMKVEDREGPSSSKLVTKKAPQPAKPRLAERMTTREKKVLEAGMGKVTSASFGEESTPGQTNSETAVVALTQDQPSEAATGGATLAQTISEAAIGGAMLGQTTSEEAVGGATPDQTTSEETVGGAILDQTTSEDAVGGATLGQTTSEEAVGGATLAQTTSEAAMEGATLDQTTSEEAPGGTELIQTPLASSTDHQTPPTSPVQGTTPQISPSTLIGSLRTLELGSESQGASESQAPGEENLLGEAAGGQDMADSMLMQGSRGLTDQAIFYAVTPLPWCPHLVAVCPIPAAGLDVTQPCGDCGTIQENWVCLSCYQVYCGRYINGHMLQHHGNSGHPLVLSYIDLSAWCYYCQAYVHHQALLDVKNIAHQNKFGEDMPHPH
In words: HDAC 6 Assay.

The next assay concerns the target HDAC 1 (Homo sapiens, UniProt Q13547). The experiment in a line: HDAC1 activity, assays described on pages 104 to 106 of WO 2006/061638.

T1 sequence (P56524 655-1084 limits assumed): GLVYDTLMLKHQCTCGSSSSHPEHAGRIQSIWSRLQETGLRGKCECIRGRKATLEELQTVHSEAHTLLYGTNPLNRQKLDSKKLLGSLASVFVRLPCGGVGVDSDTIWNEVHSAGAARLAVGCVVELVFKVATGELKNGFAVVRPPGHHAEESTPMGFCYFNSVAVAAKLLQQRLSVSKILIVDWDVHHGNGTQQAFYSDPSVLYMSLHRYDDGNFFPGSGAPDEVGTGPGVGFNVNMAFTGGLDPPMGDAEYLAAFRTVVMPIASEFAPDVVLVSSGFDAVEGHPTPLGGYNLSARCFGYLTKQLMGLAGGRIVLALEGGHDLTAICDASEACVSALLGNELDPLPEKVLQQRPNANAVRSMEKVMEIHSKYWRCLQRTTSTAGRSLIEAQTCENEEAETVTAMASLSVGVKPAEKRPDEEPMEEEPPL
Sequence of HDAC 1 (Q13547 whole entry): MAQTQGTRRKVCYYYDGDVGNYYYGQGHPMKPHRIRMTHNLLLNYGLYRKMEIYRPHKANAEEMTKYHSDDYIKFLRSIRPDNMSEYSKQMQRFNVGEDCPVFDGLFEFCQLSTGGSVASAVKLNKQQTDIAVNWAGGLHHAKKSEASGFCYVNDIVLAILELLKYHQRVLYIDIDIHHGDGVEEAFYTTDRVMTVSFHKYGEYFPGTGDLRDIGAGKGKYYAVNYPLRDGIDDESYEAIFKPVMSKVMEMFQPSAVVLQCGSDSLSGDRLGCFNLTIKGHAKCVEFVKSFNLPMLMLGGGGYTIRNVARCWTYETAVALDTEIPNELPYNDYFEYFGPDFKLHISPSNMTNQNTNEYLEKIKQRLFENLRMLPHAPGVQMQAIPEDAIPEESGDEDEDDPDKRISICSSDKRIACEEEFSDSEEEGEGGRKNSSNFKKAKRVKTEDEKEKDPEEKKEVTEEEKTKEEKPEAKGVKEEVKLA

As to `CC(/C=C/C(=O)NO)=C\[C@@H](C)C(=O)c1ccc(N(C)C)cc1` [TSA, trichostatin A], the inhibition at 1 µM at HDAC 4 (@ 1000 nM, read-out: HDAC 4 % inh.) turned out to be 42%.
For the molecule `C[C@@H](NC(=O)c1ccc(C(=O)C(F)(F)F)s1)c1ccccc1` [Example 8, N-[(1R)-1-phenylethyl]-5-(trifluoroacetyl)thiophene-2-carboxamide], the “selectivity for Class II HDAC (HDAC 4 and 6) over Class I (HDAC 1)” value at HDAC 4 (HDAC 4 and 6 versus HDAC 1) was “showed selectivity for Class II HDAC (HDAC 4 and 6) over Class I (HDAC 1)”. In addition, the pIC50 at HDAC 4 (read-out: HDAC 4 IC50) was 7.02; on HDAC 6, 6.46; against HDAC 1, 6.15.
Consider `C[C@@H](NC(=O)c1ccc(C(=O)NO)s1)c1ccccc1` [N-hydroxy-N′-[(1R)-1-phenytethyl]thiophene-2,5-dicarboxamide], for which the pIC50 at HDAC 4 (not active up to the stated concentration, read-out: HDAC 4 IC50, Not active up to) is below 6.00; against HDAC 1, 8.22. Further, the inhibition at 0.001 µM on HDAC 6 (@ 1 nM, read-out: HDAC 6 % inh.) came to 50%.

Values taken from patent US7977374B2, “Thiophene and thiazole substituted trifluoroethanone derivatives as histone deacetylase (HDAC) inhibitors” (Istituto Di Ricerche Di Biologia Molecolare P. Angeletti SPA, priority 2005, dated 2011).
